US12473274B2, “Heterocyclic compound as inhibitor of casein kinase 1-δ and/or activin receptor-like kinase 5” (Alchemedicine, Inc., priority 2020, dated 2025)

Tests used:
Assay type in all cases: biochemical
[1] = target: T1, human p38α (Homo sapiens, UniProt Q16539); assay: Test Example 1: p38α inhibition action (mobility shift, LabChip); details: Modified Erktide 1 μM, ATP 150 μM, Mg 5 mM, 1 hour room temperature
T1 construct: GST (N); made in house; host or cells: E. coli
Method: (§1) Evaluation of CK1δ Inhibitory Activity and p38α Inhibition Action
(§2) 1. Preparation of Solution of Test Substance
(§3) A test substance was dissolved in dimethyl sulfoxide (DMSO). The solution was further diluted with DMSO to prepare a solution at a concentration 100-fold greater than the test concentration. The solution was further 25-fold diluted with an assay buffer to prepare a solution of the test substance. The positive control substance was also treated as above to prepare a solution of the positive control substance.
(§4) 2. Preparation of Kinase Protein
p38α: Used was the human p38α prepared as followed: GST (66 KDa) was fused with the N-terminal of the 9-352 amino acid sequence site in accession number NP_620581.1, followed by expression in E. coli and then refining by a glutathione sepharose chromatography system, and the product was activated with His-tagged MAP2K6, and was again purified by the glutathione sepharose chromatography system.
(§5) 3. Reagent and Test Method
(§6) 5 μL of a 4-fold solution of the test substance prepared with an assay buffer (20 mM HEPES, 0.01% Triton X-100, 2 mM DTT, pH: 7.5), 5 μL of a 4-fold substrate/ATP/metal solution, and 10 μL of a 2-fold kinase solution were mixed in wells of a 384-well plate made of polypropylene, and were reacted at room temperature for 1 hour. 70 μL of Termination Buffer (QuickScout Screening Assist MSA; Carna Biosciences) was added to terminate the reaction. The substrate peptide and phosphorylated peptide in the reaction solution were separated by a LabChip system (Perkin Elmer), and were quantitated. The kinase reaction was evaluated based on the product ratio (P/(P+S)) calculated from the substrate peptide peak height (S) and the phosphorylated peptide peak height (P).
(§7) The average signal from control wells containing all the reaction components was defined as 0% inhibition, and the average signal from background wells (enzyme not added) was defined as 100% inhibition. The inhibition rate was calculated from the average signal of test wells containing each test substance. The IC50 value was determined through approximation of the plot against the test substance concentration and the inhibition rate to a 4-parameter logistic curve by non-linear least squares. The compounds in Examples had good CK1δ inhibition activity. A large difference was found between the CK1δ inhibition concentration and the p38α inhibition concentration.

[2] = target: T2, human CK1δ (Homo sapiens, UniProt P48730); assay: Test Example 1: CK1δ inhibitory activity (mobility shift, LabChip); details: for IC50: CKtide 1 μM, ATP 10 μM, Mg 5 mM, 1 hour room temperature; for Ratio (p38α/CK1δ): ratio of p38α IC50 to CK1δ IC50, Test Example 1
T2 construct: GST (N); made in house; host or cells: E. coli
T2 sequence (P48730 1-294): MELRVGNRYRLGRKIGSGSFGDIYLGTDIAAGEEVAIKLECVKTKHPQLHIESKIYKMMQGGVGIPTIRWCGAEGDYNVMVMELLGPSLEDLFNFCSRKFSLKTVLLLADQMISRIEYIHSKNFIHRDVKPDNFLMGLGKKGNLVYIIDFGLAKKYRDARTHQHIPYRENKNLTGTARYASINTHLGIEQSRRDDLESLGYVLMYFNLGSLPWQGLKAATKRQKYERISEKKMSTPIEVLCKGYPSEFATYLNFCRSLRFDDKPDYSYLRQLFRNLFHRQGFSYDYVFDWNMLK
Method: as §1, §2, §3, §4
CK1δ: Used was the human CK1δ prepared by fusing GST (61 KDa) with the N-terminal of the human CK1δ enzyme activity domain (1-294 amino acid sequence site in accession number NP_001884.2), followed by expression in E. coli and then refining by a glutathione sepharose chromatography system.
as §5, §6, §7

[3] = target: T3, ALK5 (Homo sapiens, UniProt P36897); assay: Test Example 3: ALK5 inhibition action (ADP-Glo, SignalChem enzyme); set-up: GST; purchased SignalChem T07-11G; details: enzyme 5 ng/μL, TGFBR1 Peptide 200 ng/μL, ATP 25 μM, 2 hours
T3 sequence (P36897 34-503): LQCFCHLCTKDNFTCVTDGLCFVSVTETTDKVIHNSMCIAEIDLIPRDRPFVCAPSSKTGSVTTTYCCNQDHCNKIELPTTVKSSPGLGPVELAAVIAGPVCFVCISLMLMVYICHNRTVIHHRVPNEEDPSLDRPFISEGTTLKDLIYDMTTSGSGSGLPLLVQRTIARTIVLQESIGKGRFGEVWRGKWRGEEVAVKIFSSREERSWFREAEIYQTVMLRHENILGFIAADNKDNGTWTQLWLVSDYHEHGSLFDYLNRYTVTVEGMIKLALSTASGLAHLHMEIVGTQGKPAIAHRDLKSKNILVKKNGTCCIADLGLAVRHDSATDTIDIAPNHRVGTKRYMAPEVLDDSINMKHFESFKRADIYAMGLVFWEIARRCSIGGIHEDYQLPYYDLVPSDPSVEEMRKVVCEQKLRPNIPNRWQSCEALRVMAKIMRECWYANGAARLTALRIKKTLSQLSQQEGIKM
Method: (§8) Evaluation of ALK5 Inhibition Action
Using a human recombinant GST-tagged TGFB available from SignalChem (Catalog No. T07-11G), a substrate peptide TGFBR1 Peptide (Catalog No. T36-58), and ADP-Glo assay kit (Promega Corporation), measurement was performed on a 5-μL reaction system in a 384-well plate (GloMax plate reader) according to the document attached to the ADP-Glo assay kit. For the reaction conditions used, the enzyme concentration was 5 ng/μL, the substrate concentration was 200 ng/μL, the ATP concentration was 25 μM, and the reaction time was 2 hours. The IC50 value was calculated using GraphPad Prism version 5.01 based on the inhibition rate where the test substance (8 to 10 concentrations, diluted 3-fold from 3000 nM) was added.

[4] = target: T4, human recombinant GST-tagged p38α (Homo sapiens, UniProt Q16539); assay: Test Example 5: p38α inhibition action (ADP-Glo, SignalChem enzyme); details: enzyme 2 ng/μL, p38 Substrate 100 ng/μL, ATP 25 μM, 40 minutes
T4 construct: GST; purchased SignalChem M39-10 BG
T4 sequence (Q16539 whole entry): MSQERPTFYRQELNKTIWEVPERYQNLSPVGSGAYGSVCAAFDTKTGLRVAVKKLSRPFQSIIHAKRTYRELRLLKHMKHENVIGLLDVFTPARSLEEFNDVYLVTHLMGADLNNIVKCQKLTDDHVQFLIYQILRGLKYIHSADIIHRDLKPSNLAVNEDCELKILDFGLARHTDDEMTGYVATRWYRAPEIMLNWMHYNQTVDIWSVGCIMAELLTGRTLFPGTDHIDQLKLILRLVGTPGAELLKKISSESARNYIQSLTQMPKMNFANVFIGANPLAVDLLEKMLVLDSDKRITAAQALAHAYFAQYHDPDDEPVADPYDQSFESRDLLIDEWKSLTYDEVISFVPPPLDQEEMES
Method: Evaluation of p38α Inhibition Action
(§9) Using a human recombinant GST-tagged p38α available from SignalChem (Catalog No. M39-10 BG), a substrate peptide p38 Substrate (Catalog No. P03-58), and ADP-Glo assay kit (Promega Corporation), measurement was performed on a 5-μL reaction system in a 384-well plate (GloMax plate reader) according to the document attached to the ADP-Glo assay kit. For the reaction conditions used, the enzyme concentration was 2 ng/μL, the substrate concentration was 100 ng/μL, the ATP concentration was 25 μM, and the reaction time was 40 minutes. The IC50 value was calculated using GraphPad Prism version 5.01 based on the inhibition rate where the test substance (8 to 10 concentrations, diluted 3-fold from 3000 nM) was added.

[5] = target: T5, human recombinant GST-tagged CK1δ (Homo sapiens, UniProt P48730); assay: Test Example 4: CK1δ inhibition action (ADP-Glo, SignalChem enzyme); details: enzyme 2 ng/μL, Casein Dephosphorylated 200 ng/μL, ATP 25 μM, 40 minutes
T5 construct: GST; purchased SignalChem C65-10G
T5 sequence (P48730 whole entry): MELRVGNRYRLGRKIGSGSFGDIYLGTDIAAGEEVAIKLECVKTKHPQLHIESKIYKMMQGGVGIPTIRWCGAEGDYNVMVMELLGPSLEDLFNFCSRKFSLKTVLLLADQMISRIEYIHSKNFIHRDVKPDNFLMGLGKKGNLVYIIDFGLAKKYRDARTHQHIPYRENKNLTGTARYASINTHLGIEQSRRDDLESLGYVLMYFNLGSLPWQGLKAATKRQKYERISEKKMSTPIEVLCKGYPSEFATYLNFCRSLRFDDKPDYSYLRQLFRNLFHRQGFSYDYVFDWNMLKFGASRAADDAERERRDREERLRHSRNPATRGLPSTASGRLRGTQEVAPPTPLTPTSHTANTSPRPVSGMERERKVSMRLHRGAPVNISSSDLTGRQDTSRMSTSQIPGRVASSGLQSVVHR
Method: Evaluation of CK1δ Inhibition Action
as §9, with “CK1δ” for “p38α”, “C65-10G),” for “M39-10 BG),”, “Casein Dephosphorylated” for “p38 Substrate”, “C03-54BN),” for “P03-58),”, “200” for “100”

[6] = target: T3, ALK5; assay: Test Example 2: ALK5 inhibition action (ADP-Glo kinase assay)
Method: as §8, §2
A 10% DMSO stock solution (compound concentration: 10 mM) containing 0.1 mg/mL BSA (bovine serum albumin) was prepared as a solution of the test substance.
3. Reagent, Test Method, and Reaction Conditions
A kinase assay was performed using ADP-Glo™ assay kit available from Promega Corporation according to the following assay reaction recipe: • Component 1: 1 μL diluted active protein kinase • Component 2: 1 μL of the substrate • Component 3: 1 μL kinase assay buffer • Component 4: 1 μL of the compound (10 concentrations) or 10% DMSO • Component 5: 1 μL ATP stock (25 μM final well concentration)
The assay started with incubation of the reaction mixture in a 384-well plate at room temperature for 40 minutes. After the incubation, 5 μL ADP-Glo™ reagent was added. The plate was shaken, followed by incubation at room temperature for 40 minutes. […] The plate was measured on a GloMax plate reader using ADP-Glo™ Luminescence Protocol. […] The corrected activity value was calculated by subtracting the value of the blank control from the measured value.
The relative luminescence unit (RLU) was measured at 10 compound concentrations between 0.3 nM and 10,000 nM. The inhibition rate was calculated as follows: {(Control RLU−Test RLU)/(Control RLU−Background RLU)}×100 […]

T1 sequence (Q16539 9-352): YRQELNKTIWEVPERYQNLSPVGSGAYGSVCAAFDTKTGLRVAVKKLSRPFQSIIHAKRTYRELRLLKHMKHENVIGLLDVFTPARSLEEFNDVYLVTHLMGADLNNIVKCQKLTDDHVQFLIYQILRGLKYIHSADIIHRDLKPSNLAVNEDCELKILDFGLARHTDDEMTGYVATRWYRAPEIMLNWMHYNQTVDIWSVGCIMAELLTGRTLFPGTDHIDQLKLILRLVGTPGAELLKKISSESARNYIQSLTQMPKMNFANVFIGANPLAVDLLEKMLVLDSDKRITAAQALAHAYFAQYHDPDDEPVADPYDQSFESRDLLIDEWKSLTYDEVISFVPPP

**Q.** What does the source list for Fc1ccc(-c2[nH]cnc2-c2ccc3c(c2)COC3)nc1 [Example 3, 2-(4-(1,3-Dihydroisobenzofuran-5-yl)-1H-imidazol-5-yl)-5-fluoropyridine]?
**A.** IC50 [1]: 4400 nM; IC50 [2]: 48 nM; Ratio (p38α/CK1δ) [2]: 92

**Q.** Which IC50 [3] does the source give for Cc1cccc(-c2[nH]cnc2-c2ccc3c(c2)COC3)n1 [Example 4, 2-(4-(1,3-Dihydroisobenzofuran-5-yl)-1H-imidazol-5-yl)-6-methylpyridine] here?
**A.** 46 nM

**Q.** What about the IC50 [1] of the same molecule?
**A.** 5200 nM

**Q.** What about the IC50 [2] of the same molecule?
**A.** 110 nM

**Q.** What about the “Ratio (p38α/CK1δ)” value [2] of the same molecule?
**A.** 47

**Q.** What does the source list for c1ccc(-c2[nH]c(C3CC3)nc2-c2ccc3c(c2)COC3)nc1 [Example 5, 2-(2-Cyclopropyl-4-(1,3-dihydroisobenzofuran-5-yl)-1H-imidazol-5-yl)pyridine]?
**A.** IC50 [3]: 330 nM; IC50 [4]: > 3000 nM; IC50 [5]: 200 nM

**Q.** Which results are given for c1ccc(-c2[nH]cnc2-c2ccc3c(c2)COC3)nc1 [Example 1, 2-(4-(1,3-Dihydroisobenzofuran-5-yl)-1H-imidazol-5-yl)pyridine]?
**A.** IC50 [1]: 4000 nM; IC50 [2]: 21 nM; Ratio (p38α/CK1δ) [2]: 190; IC50 ([6]; ATP 25 μM, 40 minutes, 10 concentrations 0.3-10,000 nM): 31 nM; ALK5 inhibition activity (in words) ([6]; Test Example 2, comment on Table 3): good ALK5 inhibition activity

**Q.** With Cc1nc(-c2ccc3c(c2)COC3)c(-c2ccccn2)[nH]1 [Example 2, 2-(4-(1,3-Dihydroisobenzofuran-5-yl)-2-methyl-1H-imidazol-5-yl)pyridine] as the molecule, how does the IC50 [1] read?
**A.** > 10000 nM

**Q.** What about the IC50 [2] of the same molecule?
**A.** 68 nM

**Q.** And the “Ratio (p38α/CK1δ)” value [2]?
**A.** >150
